# Reference: PubChem BioAssay (NCI)
#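 Results reflect a 48-hour exposure of cells in 96-well plates to compound at five concentrations. Definition used: TGI = concentration required for complete inhibition of growth.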
# Tests used:
# Assay in all cases: NCI-60 cell line screen, 48 h
# ACHN renal = test system: ACHN renal
# CAKI-1 renal = test system: CAKI-1 renal
# SK-MEL-2 melanoma = test system: SK-MEL-2 melanoma
# SF-539 CNS = test system: SF-539 CNS
# COLO 205 colon = test system: COLO 205 colon
# UACC-62 melanoma = test system: UACC-62 melanoma
# RPMI-8226 leukemia = test system: RPMI-8226 leukemia
# IGROV1 ovarian = test system: IGROV1 ovarian
# HS 578T breast = test system: HS 578T breast
# CCRF-CEM leukemia = test system: CCRF-CEM leukemia
# 786-0 renal = test system: 786-0 renal
# MOLT-4 leukemia = test system: MOLT-4 leukemia
# MDA-MB-231 breast = test system: MDA-MB-231 breast
# MDA-MB-435 = test system: MDA-MB-435
# U251 CNS = test system: U251 CNS
# K-562 leukemia = test system: K-562 leukemia
# A498 renal = test system: A498 renal
Structure (SMILES),TGI (ACHN renal) [µM],TGI (CAKI-1 renal) [µM],TGI (SK-MEL-2 melanoma) [µM],TGI (SF-539 CNS) [µM],TGI (COLO 205 colon) [µM],TGI (UACC-62 melanoma) [µM],TGI (RPMI-8226 leukemia) [µM],TGI (IGROV1 ovarian) [µM],TGI (HS 578T breast) [µM],TGI (CCRF-CEM leukemia) [µM],TGI (786-0 renal) [µM],TGI (MOLT-4 leukemia) [µM],TGI (MDA-MB-231 breast) [µM],TGI (MDA-MB-435) [µM],TGI (U251 CNS) [µM],TGI (K-562 leukemia) [µM],TGI (A498 renal) [µM]
COc1ccc(/C=C2\N=C(N3CCOCC3)NC2=O)cc1,> 100,> 100,> 100,> 100,> 100,> 100,> 100,> 100,> 100,> 100,> 100,> 100,> 100,> 100,> 100,–,–
O=C(O)CSc1nc2ccccc2[nH]1,> 100,> 100,> 100,–,–,> 100,–,> 100,> 100,–,> 100,> 100,> 100,> 100,> 100,> 100,> 100
CC(C)(Cl)C(Br)CCC(=CCBr)CBr (mixture of isomers),15.6,–,22.9,4.93,4.91,11.5,3.22,5.56,19.3,3.49,3.17,2.88,3.51,3.56,4.09,4.18,18.3
N=C(N)SCCSC(=N)N,> 100,> 100,–,–,> 100,> 100,> 100,> 100,> 100,–,> 100,> 100,> 100,> 100,> 100,> 100,> 100
Cc1ccc(C)n1-n1c(Cc2ccc(Cl)cc2)n[nH]c1=O,> 100,> 100,> 100,–,> 100,> 100,> 100,> 100,> 100,> 100,> 100,> 100,> 100,> 100,> 100,> 100,> 100
C=CC(Br)(CBr)CCC1OC1(C)C (centres undefined),34.1,36.4,30.6,33.9,36.2,–,82,26.7,37.6,> 100,29.6,47.8,24.6,31.3,30.7,> 100,40.2
N#Cc1nc(/C=C/c2cccs2)oc1N,> 100,> 100,> 100,–,–,> 100,> 100,> 100,> 100,> 100,> 100,> 100,> 100,> 100,> 100,> 100,> 100
C=CC[C@H](O)[C@@](NC(=O)OCc1ccccc1)(Sc1ccc(C)cc1)C(F)(F)F,> 100,87.7,75.8,29.7,39.1,> 100,71.6,24,82.8,–,32.7,87.2,59.8,84,28.4,> 100,> 100
CN1CCN(Cn2nc(-c3ccccc3)n(/N=C/c3ccc(-c4ccc(Cl)cc4Cl)o3)c2=S)CC1,–,21.9,44.1,41,–,–,75.6,31.8,> 100,23.2,33.9,5.15,29.9,46.1,17.5,24.7,58.1
CC[C@H](C)[C@H](NC(=O)[C@H](Cc1ccc(O)cc1)NCC(F)(F)F)C(=O)OC(C)(C)C,13.9,15.7,13.9,21,18.4,12.9,23.5,16.4,31.5,–,16.1,22,15.5,14.8,13.7,27.2,14.8
COc1cc(/C=C2\N=C(c3ccccc3)N(c3ccc4c(c3)Sc3cc(N5C(=O)/C(=C/c6cc(OC)c(OC)c(OC)c6)N=C5c5ccccc5)ccc3N4)C2=O)cc(OC)c1OC,36.4,37.1,36.5,–,47.4,31.4,88.9,32,88.1,57.3,40.9,> 100,67.8,33.6,44.2,48.4,43.1
CC(Cc1ccc(O)cn1)(NC(=O)c1ccccc1)C(=O)O (centres undefined),> 100,> 100,> 100,> 100,> 100,> 100,> 100,> 100,> 100,> 100,> 100,> 100,> 100,> 100,> 100,> 100,–
Cc1nn(C(=O)c2ccc(Cl)cc2)c2c1C(c1ccccc1)SC(N)=N2 (centres undefined),> 10,> 10,> 10,> 10,> 10,> 10,> 10,> 10,> 10,> 10,> 10,> 10,> 10,> 10,> 10,> 10,–
O=C1NC(=S)NC1C(Cc1ccccc1)c1ccco1 (centres undefined),> 100,> 100,–,> 100,> 100,–,> 100,> 100,> 100,> 100,> 100,> 100,> 100,> 100,> 100,> 100,> 100
